Measurements: patent publication US20220275371A1, “USE OF RAB7 GTPASE (RAB7) INHIBITORS IN ENHANCING PERMEABILITY OF THE BLOOD BRAIN BARRIER (BBB)” (Children's Medical Center Corporation, priority 2019, published 2022)
Structures can show the parent of a compound that is named as a salt.

Assays:
Format in all cases: cell-based, human
astrocytes = assay: TdTom-EV uptake by astrocytes with endocytosis inhibitors (flow cytometry); conditions: 30 min pretreatment: chlorpromazine 20 μM, EIPA 50 μM, filipin III 10 μM, ML141 100 μM, CAS 1177865-17-6 10 μM; 3 hours with EVs
Source text: To elucidate the mechanisms underlying the uptake of breast cancer-derived EVs by astrocytes, the possibility of the involvement of specific endocytosis mechanism(s) in this uptake was explored. Endocytic pathways such as macropinocytosis, clathrin-dependent and caveolin-dependent endocytosis have been commonly reported to be involved in the uptake of EVs by different cell types^16.
Next, the role of clathrin-caveolin-independent pathways in EV uptake was explored, focusing on rac1 and Cdc42, two major players in this process^17.
To evaluate the uptake of EVs by astrocytes for endocytosis inhibition studies, astrocytes were treated with chlorpromazine hydrochloride (Millipore Sigma, Cat #C8138, 20 μM), 5-(N-Ethyl-N-isopropyl) amiloride (EIPA) (50 μM, Tocris, Cat #3378), and filipin III (10 μM, Millipore Sigma, Cat #F4767), CDC42/Rac1 inhibitor, ML141 (100 μM, Millipore Sigma, Cat #217708), and rac1 inhibitor, CAS 1177865-17-6 (10 μM, Millipore Sigma, Cat #553502) for 30 min.

[1] = test system: brain endothelial monolayer; assay: Static Transwell BBB model, transport of Gaussia luciferase-labeled Br-EVs; conditions: 30 min pretreatment, then Br-EVs 2 hours at 37° C.
Experimental: To verify that the source of the detected signal in the abluminal chamber was the luciferase associated with intact EVs as opposed to free luciferase, the media from the lower chamber was ultracentrifuged on an iodixanol OPTIPREP™ density gradient. As a positive control, Gaussia luciferase-labeled Br-EVs were added directly to the top of a gradient for ultracentrifugation.
To evaluate the effect of temperature, filters were incubated at either 4° C. or 37° C. To evaluate the effect of endocytosis, filters were pretreated with Dynasore hydrate (Millipore Sigma, Cat #D7693) for 30 minutes prior to adding the EVs and then incubated at 37° C. The media from the lower chamber was collected after 2 hours and luminescence intensity was measured as described before. […] After 4 hours of ultracentrifugation, different density fractions were isolated and luminescence intensity was measured for each fraction. […] After 2 hours of incubation, the permeability of the filters to 10 KDa ALEXA FLUOR™ 647 Dextran and 70 KDa FITC-dextran was measured as described above.

brain endothelial cells = assay: TdTom-Br-EV uptake by brain endothelial cells with endocytosis inhibitors (flow cytometry); conditions: 30 min pretreatment: chlorpromazine 20 μM, ML141 100 μM, EIPA 100 μM, cytochalasin D 500 nM, filipin III 10 μM; 3 hours with EVs
Source text: The mechanistic details of Br-EV transport was further explored through brain endothelial cells by focusing on the three major steps of transcytosis: 1) endocytosis through the apical (luminal) membrane of brain endothelial cells, 2) transfer through the endocytic pathway, and 3) release into the extracellular environment from the basolateral (abluminal) membrane. To evaluate the mechanism(s) of uptake, brain endothelial cells were pretreated with chemical inhibitors of the different endocytosis pathways and measured the uptake of TdTom-Br-EVs via flow cytometry.
To evaluate the uptake of EVs by brain ECs, astrocytes and pericytes, cells grown to confluence in 96-well plates were incubated with 2×10^9 particle/well of tdTomato P- and Br-EVs. After 2 hours of incubation, cells were washed for 3 times and were fixed for imaging. Images from four different fields were taken using a Zeiss Fluorescent microscope and the level of fluorescence intensity was analyzed using the ImageJ software. To eliminate the confounding effect of cell size on the uptake level, fluorescent intensity for tdTom-EVs was measured per unit of cell surface area. For endocytosis inhibition studies, brain ECs cultured in 12-well plates were treated with chlorpromazine hydrochloride (Millipore Sigma, Cat #C8138, 20 μM), ML141 (100 μM, Millipore Sigma, Cat #217708), 5-(N-Ethyl-N-isopropyl) amiloride (EIPA) (100 μM, Tocris, Cat #3378), cytochalasin D (500 nM, Tocris, Cat #1233), and filipin III (10 μM, Millipore Sigma, Cat #F4767) for 30 minutes prior to addition of TdTom-Br-EVs (10^10 particle/well). Following 3 hours of incubation with EVs, cells were washed and EV uptake was measured by flow cytometry using a BD FACSCalibur flow cytometer (BD Biosciences, San Jose, Calif.).

CCN(CC)CCCC(C)Nc1nc(C)cc(Nc2ccc3nc(C)cc(N)c3c2)n1.Cl.Cl.Cl (centres unmarked) [CAS 1177865-17-6]
uptake of breast cancer-derived EVs by astrocytes (astrocytes): no effect

O=C(N/N=C/c1ccc(O)c(O)c1)c1cc2ccccc2cc1O [Dynasore]
abluminal signal of Br-EV transport [1]: dose-dependent decrease

CCN(c1nc(N)c(C(=O)N=C(N)N)nc1Cl)C(C)C [EIPA, 5-(N-Ethyl-N-isopropyl) amiloride]
uptake of breast cancer-derived EVs by astrocytes (astrocytes): did not affect | uptake of Br-EVs by brain endothelial cells (brain endothelial cells): significant decrease

CCCCC[C@@H](O)[C@H]1C(=O)O[C@H](C)[C@@H](O)/C=C/C=C/C=C/C=C/C=C(\C)[C@@H](O)C[C@H](O)C[C@H](O)C[C@H](O)C[C@H](O)C[C@H](O)C[C@@H]1O [Filipin, filipin III]
uptake of breast cancer-derived EVs by astrocytes (astrocytes): did not affect | uptake of Br-EVs by brain endothelial cells (brain endothelial cells): no effect

COc1ccc(C2=NN(c3ccc(S(N)(=O)=O)cc3)C(c3ccccc3)C2)cc1 (centres unmarked) [ML141]
uptake of breast cancer-derived EVs by astrocytes (astrocytes): significantly decreased | uptake of Br-EVs by brain endothelial cells (brain endothelial cells): significantly decreased

CN(C)CCCN1c2ccccc2Sc2ccc(Cl)cc21 [chlorpromazine, chlorpromazine hydrochloride]
uptake of breast cancer-derived EVs by astrocytes (astrocytes): did not affect | uptake of Br-EVs by brain endothelial cells (brain endothelial cells): significantly decreased

C=C1[C@@H](C)[C@H]2[C@H](Cc3ccccc3)NC(=O)[C@]23[C@H](OC(C)=O)/C=C/[C@@](C)(O)C(=O)[C@@H](C)C/C=C/[C@H]3[C@@H]1O [cytochalasin D]
uptake of Br-EVs by brain endothelial cells (brain endothelial cells): significant decrease
